From PMC2882332, “Species Used for Drug Testing Reveal Different Inhibition Susceptibility for 17beta-Hydroxysteroid Dehydrogenase Type 1” (PLoS ONE, 2010)

biological target: T1, human 17β-HSD 5 (AKR1C3) (Homo sapiens, UniProt P42330); test: In vitro enzymatic activity, recombinant human 17β-HSD 5 (androstenedione reduction); type: biochemical; details: 2 µM compound, 21 nM 3H-androstenedione, NADPH, pH 6.6
T1 construct: made in house; host or cells: E.coli BL21 DE3 Codon Plus RP
T1 sequence (P42330 1-323): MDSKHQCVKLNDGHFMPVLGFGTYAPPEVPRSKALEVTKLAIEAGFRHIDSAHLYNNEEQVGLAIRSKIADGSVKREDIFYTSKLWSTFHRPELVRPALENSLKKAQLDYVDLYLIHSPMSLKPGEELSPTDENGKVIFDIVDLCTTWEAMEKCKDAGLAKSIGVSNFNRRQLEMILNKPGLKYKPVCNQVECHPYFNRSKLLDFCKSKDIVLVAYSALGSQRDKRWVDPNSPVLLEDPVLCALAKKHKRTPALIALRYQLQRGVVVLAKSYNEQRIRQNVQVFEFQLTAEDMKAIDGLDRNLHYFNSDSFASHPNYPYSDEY
Source text: Full length cDNAs of several 17β-HSDs type 1 originating from different species were cloned either into the pQE30 vector (human 17β-HSD 1, coding for acc. no. NP_000404) for expression as His-Tag protein or into a modified pGex-2T vector [63] (mouse 17β-HSD 1, acc. no. NP_034605; rat 17β-HSD 1, acc. no. NP_036983; marmoset 17β-HSD 1, acc. no. AAG01115; porcine 17β-HSD 1, acc. no. NP_001121944) for expression as GST-fusion proteins. The marmoset 17β-HSD 1 enzyme sequence was updated by the missing N-terminal part (AF272013) and the new porcine sequence was submitted to GenBank (NP_001121944). Human 17β-HSDs 2, 4, 5 (AKR1C3, the latter kindly provided by Dr. T. Penning) and 7 were all cloned into the modified pGEX-2T vector. For 17β-HSD 4 only the SDR-domain converting the steroids was subcloned. Plasmids were transformed into E.coli BL21 DE3 Codon Plus RP (Stratagene) and enzyme expression was induced by 0.5 mM IPTG. After 4h incubation at 37°C with continuous shaking bacteria were pelleted by centrifugation at 10.000×g. Pellets were stored until use at −20°C.
The bacteria containing recombinant enzymes were resuspended in PBS and enzymatic assays were performed in 100 mM sodium phosphate buffer at pH 6.6 for the reductive reaction and at pH 7.7 for the oxidative reaction. […] All substrates were purchased from NEN/Perkin Elmer. The cofactors NADPH (Sigma; for reductive reactions) and NAD^+ (Serva, for oxidative reactions) were used at final concentrations of 0.5 mg/ml. […] The incubation at 37°C was stopped with 0.21 M ascorbic acid in methanol∶acetic acid 99∶1 (v∶v) after the time needed to convert approximately 30% of the substrate in a control assay with 1% DMSO, without inhibitor candidates. […] The solvent used was acetonitrile∶water (43∶57, v∶v) at a flow rate of 1 ml/min. Radioactivity was detected by online-scintillation counting (Berthold LB506D) after mixing with ReadyFlowIII (Beckman). Conversion was calculated from integration of substrate and product peaks. […] All assays were run in duplicates of two independent experiments and mean values are reported. The IC50 values were determined by the One Ligand Binding model of SigmaPlot kinetics module.

SMILES | Observed % inhibition [%]
C[C@]12CC[C@@H]3c4ccc(O)cc4CC[C@H]3[C@@H]1[C@@H](CNC(=O)c1ccc(F)cc1)CC2=O [Compound 1] | 21.6
C[C@]12CC[C@@H]3c4ccc(O)cc4CC[C@H]3[C@@H]1[C@@H](CCCC(=O)N1CCOCC1)CC2=O [Compound 2] | 33.9
Cc1cnc(NC(=O)CC[C@@H]2CC(=O)[C@@]3(C)CC[C@@H]4c5ccc(O)cc5CC[C@H]4[C@H]23)s1 [Compound 3] | 29.3
COc1ccc(-c2cn(CCC[C@H]3CC(=O)[C@@]4(C)CC[C@@H]5c6ccc(O)cc6CC[C@H]5[C@H]34)nn2)cc1 [Compound 4] | 93.5
C[C@]12CC[C@@H]3c4ccc(O)cc4CC[C@H]3[C@@H]1C[C@H](CC(=O)NCc1cccnc1)C2=O [Compound 5, reference compound] | 50.6
